We go through ten compounds from EP0402734A2, “Composition for the treatment of application of the central nervous system and to enhance cerebral perfusion” (Dr. Karl Thomae GmbH, priority 1989, dated 1990).

Test [1] addresses muscarinische Rezeptoren der Pia mater des Rindes. The test can be described thus: Inhibition of 3H-NMS binding to muscarinic receptors in bovine pia mater vessel homogenate. Set-up: species or system Rind. The following applies: Hemmung der ³H-NMS-Bindung, 0,3 nM [³H]NMS, 45 min, room temperature. As for the experimental part: A. Bindung verschiedener muskarinischer Antagonisten an Rezeptoren der Pia mater des Rindes
Die Pia-Gefäße von Rinder-Hirnen, erhalten vom lokalen Schlachthof, wurden präpariert und von Blutresten gereinigt. Je 0,5 g-Portionen wurden bei -80°C bis zur weiteren Verwendung gelagert. Zur Homogenatgewinnung wurden 0,5 g Pia-Gefäße mittels eines Gewebehackers zerkleinert, in 60 ml HEPES-Puffer (20 mM HEPES, 10 mM MgCl₂, 100 mM NaCl, pH 7,50) aufgenommen, mit einem Ultra-Turrax homogenisiert und 20 min. bei 0°C mit 48000 x g zentrifugiert. Das Pellet wurde erneut mit einem Ultra-Turrax homogenisiert, durch Mull filtriert und mit HEPES-Puffer auf eine Verdünnung von 1:140 bezogen auf das Feuchtgewicht der Gefäße verdünnt.
0,3 nM [³H]NMS (³H-N-Methylscopolamin) und steigende Konzentrationen des Antagonisten wurden mit dem Homogenat in einem Gesamtvolumen von 0,52 ml für 45 min. bei Raumtemperatur inkubiert. Der Inkubationsansatz wurde mit Hilfe eines Scatron Cell Harvesters über Glasfaser-Filtermatten filtriert und zweimal mit eiskalter physiologischer Kochsalzlösung gewaschen. Die Filter-gebundene Radioaktivität wurde in einem Flüssigkeitsszintillationszähler bestimmt. Als unspezifische Bindung wurde die gebundene Radioaktivität in Gegenwart von 10⁻⁶M (-)-Chinuclidinyl-benzilat definiert.

Test [2] relates to inhibitorischen Autorezeptoren in hippocampalem Gewebe. The test can be described thus: Transmitter release study: in vitro acetylcholine release from electrically stimulated hippocampal slices, antagonism of carbachol. In kind it is cell-based, Ratten. The following applies: rat hippocampal slices 0,4 mm, preloaded with ³H-Cholin, electrical stimulation 3 Hz, agonist Carbachol. An excerpt: B. Transmitter Release Studien
Die Versuche zur in-vitro Freisetzung von Acetylcholin aus hippocampalen Gewebeschnitten wurden in Analogie zu Anord nungen durchgeführt, die für die Freisetzung von 5-HT aus Hypothalamus- bzw. Hippocampus-Gewebe beschrieben sind (vgl. M.H. Richards, Naunyn Schmiedeberg's Arch. Pharmacol. 329, 359-366 (1985) und T.J. Feuerstein, G. Hertting und R. Jackisch, Europ. J. Pharmacol. 107, 233-242 (1985)).
Männliche Ratten (Stamm Chbb:Thom, Gewicht 200 bis 300 g) wurden ohne Vorbehandlung dekapitiert; das gesamte Gehirn wurde sofort entnommen und unter Eiskühlung zerlegt. Gemäß den oben beschriebenen Verfahren wurde der Hippocampus in 0,4 mm dicke Schnitte mit Hilfe eines McIlwain-Gewebehackers geschnitten. Die Gewebeschnitte wurden 30 Minuten lang bei 37°C vorincubiert in Gegenwart von 0,05 mM ³H-Cholin in Krebs-Henseleit Puffer der folgenden Zusammensetzung: 120 mM NaCl, 4,8 mM KCl, 1,3 mM CaCl₂, 1,2 mM KH₂PO₄, 1,2 mM MgSO₄ und 25 mM NaHCO₃. Der Puffer enthielt zusätzlich 2 g Glucose und 100 mg EDTA. Der Puffer wurde mit Natronlauge auf einen pH-Wert von 7,4 bei 20°C eingestellt. Alle Lösungen wurden kontinuierlich mit 95 % O₂ und 5 % CO₂ gesättigt. Die Gewebeschnitte wurden daraufhin gespült, jeder Gewebeschnitt wurde jeweils willkürlich auf 12 Superfusionseinheiten gegeben und mit der Pufferlösung bei 37°C bei einer Fließgeschwindigkeit von 1 ml/min überspült. Die Gewebeschnitte wurden jeweils von einem Polypropylennetzwerk zwischen zwei Platinelektroden gehalten. Nach 50-minütiger Überspülung wurden 4-Minuten-Fraktionen des Superfusats über eine gesamte Zeitdauer von 92 Minuten gesammelt. Die Gewebeschnitte wurden zweimal elektrisch stimuliert, und zwar 60 Minuten (S1) und 100 Minuten (S2) nach Beginn der Superfusion. Dabei wurden Rechteckimpulse von 2 ms Dauer und mit einer Frequenz von 3 Hz 100 Sekunden lang bei 5 V/cm und 24 mA mittels eines HSE Stimulators II der Firma Hugo Sachs Elektronik, Hugstetten, West-Deutschland, verabreicht. Die zu prüfenden Substanzen wurden dem Puffer ab 20 Minuten vor dem Zeitpunkt S2 zusammen mit dem Agonisten (Carbachol) beigefügt. Am Ende wurden die Gewebeschnitte aus den Kammern entfernt und zur Bestimmung des verbliebenen Tritiums solubilisiert. […]

Take `CCN(CC)CC1CCCCN1CC(=O)N1c2cc(Cl)ccc2C(=O)Nc2cccnc21` (racemic) [C, (±)-9-Chlor-11-[[2-[(diethylamino)methyl]-1-piperidinyl]acetyl]-5,11-dihydro-6H-pyrido[2,3-b][1,4]benzodiazepin-6-on]: in test [1], the “-log IC₅₀ (M)” value is given as 7,5 M. Also, the “ACh-Release aus Hippocampus-Gewebe (pA₂)” value in test [2] is given as 7,3.

For `CCN(CC)CC1CCCCN1CC(=O)N1c2ccccc2C(=O)Nc2cccnc21` (single isomer, unassigned; (+)) [A, (+)-11-[[2-[(Diethylamino)methyl]-1-piperidinyl]acetyl]-5,11-dihydro-6H-pyrido[2,3-b][1,4]benzodiazepin-6-on], in test [1], the “-log IC₅₀ (M)” value is on record as 7,1 M. For the same compound, the “ACh-Release aus Hippocampus-Gewebe (pA₂)” value in test [2] is 7,15.

As to `O=C1Nc2cccnc2N(C(=O)CCC#CCN2CCCCC2)c2ccccc21` [B, 5,11-Dihydro-11-[1-oxo-6-(1-piperidinyl)-4-hexin-1-yl]-6H-pyrido[2,3-b][1,4]benzodiazepin-6-on], the “-log IC₅₀ (M)” value in test [1] was 6,9 M. Also, in test [2], the “ACh-Release aus Hippocampus-Gewebe (pA₂)” value is recorded as 7,2.

Regarding `CCCN(CCC)CC1CCCCN1CCNC(=O)N1c2ccccc2C(=O)Nc2cccnc21.CS(=O)(=O)O` (centres unmarked) [D, 5,11-Dihydro-11-[[[2-[2-[(dipropylamino)methyl]-1-piperidinyl]ethyl]amino]carbonyl]-6H-pyrido[2,3-b][1,4]benzodiazepin-6-on-methansulfonat], the “-log IC₅₀ (M)” value in test [1] is recorded as 7,9 M. Besides, the “ACh-Release aus Hippocampus-Gewebe (pA₂)” value in test [2] is 8,35.

Regarding `O=C1Nc2cccnc2N(C(=O)N2CCCC(CCCN3CCCCC3)C2)c2ccccc21` (centres unmarked) [E, 5,11-Dihydro-11-[[3-[3-(1-piperidinyl)-1-propyl]-1-piperidinyl]carbonyl]-6H-pyrido[2,3-b][1,4]benzodiazepin-6-on], in test [1], the “-log IC₅₀ (M)” value is given as 8,8 M. In addition, in test [2], the “ACh-Release aus Hippocampus-Gewebe (pA₂)” value was 9,55.

As to `Cc1scc2c1N(C(=O)CN1CCC(CCCN3CCCCC3)CC1)c1ccccc1NC2=O` [F, 4,9-Dihydro-3-methyl-4-[[4-[3-(1-piperidinyl)-1-propyl]-1-piperidinyl]acetyl]-10H-thieno[3,4-b][1,5]benzodiazepin-10-on], the “-log IC₅₀ (M)” value in test [1] is recorded as 8,6 M. In addition, the “ACh-Release aus Hippocampus-Gewebe (pA₂)” value in test [2] was 7,7.

Consider `Cc1scc2c1N(C(=O)CCC#CCN1CCCCCC1)c1ccccc1NC2=O` [H, 4,9-Dihydro-3-methyl-4-[6-(hexahydro-1H-1-azepinyl)-1-oxo-4-hexin-1-yl]-10H-thieno[3,4-b][1,5]benzodiazepin-10-on], for which the “-log IC₅₀ (M)” value in test [1] is listed as 8,0 M. The “ACh-Release aus Hippocampus-Gewebe (pA₂)” value in test [2] is 8,0.

Turning to `CCN(CC)CC1COCCN1CCCC(=O)N1c2ccccc2C(=O)Nc2cccnc21` (centres unmarked) [I, 11-[4-[3-[(Diethylamino)methyl]-4-morpholinyl]-1-oxo-1-butyl]-5,11-dihydro-6H-pyrido[2,3-b][1,4]benzodiazepin-6-on], the “-log IC₅₀ (M)” value in test [1] is listed as 7,7 M. Also, the “ACh-Release aus Hippocampus-Gewebe (pA₂)” value in test [2] is on record as 7,5.

Consider `CN(CCC1CCCN1C)CC(=O)N1c2ccccc2C(=O)Nc2cccnc21` (centres unmarked) [K, 5,11-Dihydro-11-[[[2-(1-methyl-2-pyrrolidinyl)ethyl]methylamino]acetyl]-6H-pyrido[2,3-b][1,4]benzodiazepin-6-on], for which, in test [1], the “-log IC₅₀ (M)” value is 8,2 M. The “ACh-Release aus Hippocampus-Gewebe (pA₂)” value in test [2] is 8,5.

Regarding `CN(CCC1CCCCCN1C)CC(=O)N1c2ccccc2C(=O)Nc2cccnc21` (centres unmarked) [L, 5,11-Dihydro-11-[[[2-(1-methyl-hexahydro-1H-2-azepinyl)ethyl]methylamino]acetyl]-6H-pyrido[2,3-b][1,4]benzodiazepin-6-on], the “-log IC₅₀ (M)” value in test [1] is listed as 8,4 M. Moreover, the “ACh-Release aus Hippocampus-Gewebe (pA₂)” value in test [2] is given as 8,45.
